According to patent US6737383B1, “Herbicidal oxadiazolidines” (priority 1999, dated 2004):

Key:
bedstraw = assay: Test B pre/postemergence bedstraw; type: in vivo, Galium aparine
In short: (§1)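 Response is a visual 0-to-10 score relative to untreated plants, where 0 means no effect and 10 means complete control, taken twelve to sixteen days after application. Treatments went onto soil at planting and onto foliage of 1- to 4-leaf plants, using a surfactant-containing non-phytotoxic solvent.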

cocklebur = assay: Test B pre/postemergence cocklebur; type: in vivo, Xanthium strumarium
In short: as §1

velvetleaf = assay: Test B pre/postemergence velvetleaf; type: in vivo, Abutilon theophrasti
In short: as §1

morningglory = assay: Test B pre/postemergence morningglory; type: in vivo, Ipomoea hederacea
In short: as §1

blackgrass = assay: Test B pre/postemergence blackgrass; type: in vivo, Alopecurus myosuroides
In short: as §1

surinam grass = assay: Test B pre/postemergence surinam grass; type: in vivo, Brachiaria decumbens; conditions: for Plant response rating, B. signalgrass: Postemergence
In short: as §1

giant foxtail = assay: Test B pre/postemergence giant foxtail; type: in vivo, Setaria faberii
In short: as §1

rape = assay: Test B pre/postemergence rape; type: in vivo, Brassica napus
In short: as §1

sugar beet = assay: Test B pre/postemergence sugar beet; type: in vivo, Beta vulgaris
In short: as §1

crabgrass = assay: Test B pre/postemergence crabgrass; type: in vivo, Digitaria sanguinalis
In short: as §1

soybean = assay: Test B pre/postemergence soybean; type: in vivo, Glycine max
In short: as §1

corn = assay: Test B pre/postemergence corn; type: in vivo, Zea mays
In short: as §1

wheat = assay: Test B pre/postemergence wheat; type: in vivo, Triticum aestivum
In short: as §1

pigweed = assay: Test B pre/postemergence pigweed; type: in vivo, Amaranthus retroflexus
In short: as §1

wild oat = assay: Test B pre/postemergence wild oat; type: in vivo, Avena fatua
In short: as §1

purple nutsedge = assay: Test B pre/postemergence purple nutsedge; type: in vivo, Cyperus rotundus; conditions: for Plant response rating, Nutsedge: Postemergence, scale of 0 to 10 where 0 is no effect and 10 is complete control
In short: as §1

[1] = Preemergence, Rate 62 g/ha, scale 0 to 10 (0 no effect, 10 complete control)
[2] = Preemergence, Rate 125 g/ha, scale 0 to 10, 0 is no effect, 10 is complete control
[3] = Preemergence, Rate 500 g/ha, scale of 0 to 10 where 0 is no effect and 10 is complete control
[4] = Rate 250 g/ha, Postemergence, scale of 0 to 10 where 0 is no effect and 10 is complete control
[5] = Postemergence, Rate 62 g/ha, scale of 0 to 10, 0 is no effect, 10 is complete control
[6] = Postemergence, Rate 125 g/ha, scale 0 to 10, 0 is no effect, 10 is complete control
[7] = Postemergence, Rate 500 g/ha, scale of 0 to 10 where 0 is no effect and 10 is complete control

COCn1c(=O)on(C(=O)N(c2ccccc2)C(C)C)c1=O [Compound 562]
Bedstraw plant response rating (bedstraw; [1]): 0
Bedstraw plant response rating (bedstraw; [2]): 0
Bedstraw plant response rating (0 to 10 scale) (bedstraw; Preemergence, Rate 250 g/ha): 0
Bedstraw plant response rating (bedstraw; [3]): 0
Plant response rating, Bedstraw (bedstraw; [4]): 4
Cocklebur plant response rating (cocklebur; [5]): 2
Cocklebur plant response rating (cocklebur; [6]): 2
Plant response rating, Cocklebur (cocklebur; [7]): 2
Cocklebur plant response rating (cocklebur; [1]): 0
Cocklebur plant response rating (cocklebur; [2]): 0
Cocklebur plant response rating (0 to 10 scale) (cocklebur; Preemergence, Rate 250 g/ha): 0
Cocklebur plant response rating (cocklebur; [3]): 2
Plant response rating, Cocklebur (cocklebur; [4]): 2
Velvetleaf plant response rating (velvetleaf; [5]): 3
Plant response rating, Velvetleaf (velvetleaf; [7]): 6
Velvetleaf plant response rating (velvetleaf; [1]): 0
Velvetleaf plant response rating (velvetleaf; [2]): 0
Velvetleaf plant response rating (0 to 10 scale) (velvetleaf; Preemergence, Rate 250 g/ha): 0
Velvetleaf plant response rating (velvetleaf; [3]): 7
Plant response rating, Velvetleaf (velvetleaf; [4]): 6
Morningglory plant response rating (morningglory; [5]): 4
Morningglory plant response rating (morningglory; [6]): 4
Plant response rating, Morningglory (morningglory; [7]): 10
Morningglory plant response rating (morningglory; [1]): 0
Morningglory plant response rating (morningglory; [2]): 0
Morningglory plant response rating (0 to 10 scale) (morningglory; Preemergence, Rate 250 g/ha): 0
Morningglory plant response rating (morningglory; [3]): 8
Plant response rating, Morningglory (morningglory; [4]): 10
Blackgrass plant response rating (blackgrass; [5]): 3
Blackgrass plant response rating (blackgrass; [6]): 3
Plant response rating, Blackgrass (blackgrass; [7]): 3
Blackgrass plant response rating (blackgrass; [1]): 4
Blackgrass plant response rating (blackgrass; [2]): 10
Blackgrass plant response rating (0 to 10 scale) (blackgrass; Preemergence, Rate 250 g/ha): 10
Blackgrass plant response rating (blackgrass; [3]): 10
Plant response rating, Blackgrass (blackgrass; [4]): 3
Plant response rating, B. signalgrass (surinam grass; Rate 500 g/ha, scale of 0 to 10 where 0 is no effect and 10 is complete control): 7
B. signalgrass plant response rating (surinam grass; [1]): 5
B. signalgrass plant response rating (surinam grass; [2]): 8
B. signalgrass plant response rating (0 to 10 scale, 0 is no effect, 10 is complete control) (surinam grass; Preemergence, Rate 250 g/ha): 10
B. signalgrass plant response rating (surinam grass; [3]): 10
Plant response rating, B. signalgrass (surinam grass; Rate 250 g/ha, scale of 0 to 10 where 0 is no effect and 10 is complete control): 5
Giant foxtail plant response rating (giant foxtail; [5]): 7
Giant foxtail plant response rating (giant foxtail; [6]): 7
Plant response rating, Giant foxtail (giant foxtail; [7]): 8
Giant foxtail plant response rating (giant foxtail; [1]): 4
Giant foxtail plant response rating (giant foxtail; [2]): 9
Giant foxtail plant response rating (0 to 10 scale) (giant foxtail; Preemergence, Rate 250 g/ha): 8
Giant foxtail plant response rating (giant foxtail; [3]): 8
Plant response rating, Giant foxtail (giant foxtail; [4]): 8
Rape plant response rating (rape; [5]): 0
Rape plant response rating (rape; [6]): 0
Plant response rating, Rape (rape; [7]): 7
Rape plant response rating (rape; [1]): 0
Rape plant response rating (rape; [2]): 6
Rape plant response rating (0 to 10 scale) (rape; Preemergence, Rate 250 g/ha): 10
Rape plant response rating (rape; [3]): 10
Plant response rating, Rape (rape; [4]): 0
Sugarbeets plant response rating (sugar beet; [5]): 3
Plant response rating, Sugarbeets (sugar beet; [7]): 5
Sugarbeets plant response rating (sugar beet; [1]): 6
Sugarbeets plant response rating (sugar beet; [2]): 8
Sugarbeets plant response rating (0 to 10 scale) (sugar beet; Preemergence, Rate 250 g/ha): 9
Sugarbeets plant response rating (sugar beet; [3]): 9
Plant response rating, Sugarbeets (sugar beet; [4]): 3
Crabgrass plant response rating (crabgrass; [5]): 7
Crabgrass plant response rating (crabgrass; [6]): 5
Plant response rating, Crabgrass (crabgrass; [7]): 10
Crabgrass plant response rating (crabgrass; [1]): 8
Crabgrass plant response rating (crabgrass; [2]): 8
Crabgrass plant response rating (0 to 10 scale) (crabgrass; Preemergence, Rate 250 g/ha): 10
Crabgrass plant response rating (crabgrass; [3]): 10
Plant response rating, Crabgrass (crabgrass; [4]): 7
Soybean plant response rating (soybean; [5]): 3
Plant response rating, Soybean (soybean; [7]): 5
Soybean plant response rating (soybean; [1]): 0
Soybean plant response rating (soybean; [2]): 0
Soybean plant response rating (0 to 10 scale) (soybean; Preemergence, Rate 250 g/ha): 9
Soybean plant response rating (soybean; [3]): 9
Plant response rating, Soybean (soybean; [4]): 4
Corn plant response rating (corn; [5]): 0
Corn plant response rating (corn; [6]): 3
Plant response rating, Corn (corn; [7]): 7
Corn plant response rating (corn; [1]): 0
Corn plant response rating (corn; [2]): 3
Corn plant response rating (0 to 10 scale) (corn; Preemergence, Rate 250 g/ha): 9
Corn plant response rating (corn; [3]): 9
Plant response rating, Corn (corn; [4]): 7
Wheat plant response rating (wheat; [5]): 0
Plant response rating, Wheat (wheat; [7]): 5
Wheat plant response rating (wheat; [1]): 3
Wheat plant response rating (wheat; [2]): 9
Wheat plant response rating (0 to 10 scale) (wheat; Preemergence, Rate 250 g/ha): 9
Wheat plant response rating (wheat; [3]): 9
Plant response rating, Wheat (wheat; [4]): 7
Redroot pigweed plant response rating (pigweed; [5]): 9
Plant response rating, Redroot pigweed (pigweed; [7]): 9
Redroot pigweed plant response rating (pigweed; [1]): 10
Redroot pigweed plant response rating (pigweed; [2]): 10
Redroot pigweed plant response rating (0 to 10 scale) (pigweed; Preemergence, Rate 250 g/ha): 10
Redroot pigweed plant response rating (pigweed; [3]): 10
Plant response rating, Redroot pigweed (pigweed; [4]): 9
Wild oats plant response rating (wild oat; [5]): 0
Plant response rating, Wild oats (wild oat; [7]): 4
Wild oats plant response rating (wild oat; [1]): 4
Wild oats plant response rating (wild oat; [2]): 9
Wild oats plant response rating (0 to 10 scale) (wild oat; Preemergence, Rate 250 g/ha): 10
Wild oats plant response rating (wild oat; [3]): 10
Plant response rating, Wild oats (wild oat; [4]): 0
Plant response rating, Nutsedge (purple nutsedge; Rate 500 g/ha): 5
Nutsedge plant response rating (purple nutsedge; [1]): 0
Nutsedge plant response rating (purple nutsedge; [2]): 0
Nutsedge plant response rating (0 to 10 scale) (purple nutsedge; Preemergence, Rate 250 g/ha): 0
Plant response rating, Nutsedge (purple nutsedge; Rate 250 g/ha): 5
